Laboratory results published in ChEMBL document CHEMBL6153133, “Discovery of Diphenyl Ether Derivatives as Novel BKCa Channel Activators: Structure-Activity Relationship, Cryo-EM Complex Structures, and In Vivo Animal Studies” (J Med Chem, 2025).
Values belong to the compound of their own block, whether it stands above or below them. Activity calls are given as the source filed them. The calls are words filed in the database; no cut-off is given here.

Experiments:
[1] = test system: Calcium-activated potassium channel subunit alpha-1 (Homo sapiens), Q12791 [UNDEFINED MUTATION]; assay: (§1) Activation of hyperactive human BKca channel G803D/N806K mutant transfected in human AD-293 cells incubated for 15 mins by Flexstation3 multimode microplate reader analysis; assay type: cell-based
Sequence of Calcium-activated potassium channel subunit alpha-1 (Homo sapiens), Q12791 [UNDEFINED MUTATION] (Q12791 whole entry, looked up, stated change not applied): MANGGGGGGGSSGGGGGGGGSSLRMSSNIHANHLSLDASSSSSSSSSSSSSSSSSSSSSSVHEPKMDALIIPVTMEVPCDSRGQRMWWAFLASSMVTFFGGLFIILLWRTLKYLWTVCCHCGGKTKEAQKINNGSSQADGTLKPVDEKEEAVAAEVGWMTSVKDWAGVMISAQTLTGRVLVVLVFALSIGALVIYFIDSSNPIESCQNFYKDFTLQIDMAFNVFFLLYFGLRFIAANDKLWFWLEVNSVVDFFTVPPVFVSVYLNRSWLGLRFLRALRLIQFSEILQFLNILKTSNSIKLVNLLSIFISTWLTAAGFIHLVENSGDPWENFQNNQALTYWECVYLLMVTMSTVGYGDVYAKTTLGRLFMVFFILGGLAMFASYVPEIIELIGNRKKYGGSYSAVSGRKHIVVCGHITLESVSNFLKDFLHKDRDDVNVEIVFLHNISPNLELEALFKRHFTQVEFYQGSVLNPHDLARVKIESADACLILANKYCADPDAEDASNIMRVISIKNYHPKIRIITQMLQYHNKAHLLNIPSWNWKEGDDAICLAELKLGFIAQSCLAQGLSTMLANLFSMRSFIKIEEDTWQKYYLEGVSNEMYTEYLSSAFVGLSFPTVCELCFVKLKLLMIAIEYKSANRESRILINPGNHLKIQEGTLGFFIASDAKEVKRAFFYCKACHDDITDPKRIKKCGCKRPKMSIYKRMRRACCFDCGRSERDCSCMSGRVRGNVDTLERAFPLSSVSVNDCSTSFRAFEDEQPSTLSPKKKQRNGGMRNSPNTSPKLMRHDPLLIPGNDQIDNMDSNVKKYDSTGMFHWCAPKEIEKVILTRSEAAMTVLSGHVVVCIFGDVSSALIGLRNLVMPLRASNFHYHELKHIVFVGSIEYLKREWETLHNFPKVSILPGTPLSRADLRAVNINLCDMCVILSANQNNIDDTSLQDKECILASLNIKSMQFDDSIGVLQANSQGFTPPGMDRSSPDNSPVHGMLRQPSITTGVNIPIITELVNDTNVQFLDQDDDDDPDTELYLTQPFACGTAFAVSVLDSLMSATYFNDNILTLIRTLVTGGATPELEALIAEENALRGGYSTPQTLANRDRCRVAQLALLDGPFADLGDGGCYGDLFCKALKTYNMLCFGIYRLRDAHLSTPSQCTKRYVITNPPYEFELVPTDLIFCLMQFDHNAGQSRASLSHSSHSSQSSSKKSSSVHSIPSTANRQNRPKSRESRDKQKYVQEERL

[2] = test system: Calcium-activated potassium channel subunit alpha-1 (Homo sapiens), Q12791 [UNDEFINED MUTATION]; assay: (§2) Activation of hyperactive human BKca channel G803D/N806K mutant transfected in human AD-293 cells assessed as maximum relative fluorescence value at 5 uM preincubated for 15 mins followed by Tl+ stimulus buffer addition and measured after 80 sec by Flexstation3 multimode microplate reader analysis relative to control; assay type: cell-based; settings: time 980.0 sec
[3] = molecular target: Calcium-activated potassium channel subunit alpha-1 (Homo sapiens, UniProt Q12791, G803D/N806K); assay: as §1; assay type: cell-based
Sequence of Calcium-activated potassium channel subunit alpha-1 (Homo sapiens, UniProt Q12791, G803D/N806K) (Q12791 whole entry, looked up, stated change not applied): as above

[4] = Activation of rat BKca channel extracted from Xenopus laevis Oocytes by patch-clamp electrophysiology recordings; assay type: cell-based; settings: Oocyte
[5] = Metabolic stability in rat liver microsomes assessed as parent compound remaining at 1 uM preincubated for 5 mins followed by NADPH addition and measured after 30 mins by LC-MS/MS analysis; assay type: ADME, Microsome; settings: read-out: Stability
[6] = Metabolic stability in human liver microsomes assessed as parent compound remaining at 1 uM preincubated for 5 mins followed by NADPH addition and measured after 30 mins by LC-MS/MS analysis; assay type: ADME, Microsome; settings: read-out: Stability
[7] = Permeability of compound at pH 7.4 measured after 4 hrs by GIT-PAMPA assay; assay type: ADME; settings: read-out: permeability
Oocyte [8] = assay: Activation of wildtype rat BKca channel extracted from Xenopus laevis Oocytes assessed as negative shift in V1/2 at 5 uM at -100 mV holding potential by patch-clamp electrophysiology recordings; assay type: cell-based; settings: filed as opener
Oocyte [9] = assay: Activation of […] rat BKca channel W22A mutant extracted from Xenopus laevis Oocytes assessed as negative shift in V1/2 at 5 uM at -100 mV holding potential by patch-clamp electrophysiology recordings; assay type: cell-based; settings: filed as opener
Oocyte [10] = assay: Activation of […] rat BKca channel S259A mutant extracted from Xenopus laevis Oocytes assessed as negative shift in V1/2 at 5 uM at -100 mV holding potential by patch-clamp electrophysiology recordings; assay type: cell-based; settings: filed as opener
Oocyte [11] = assay: Activation of […] rat BKca channel F266A mutant extracted from Xenopus laevis Oocytes assessed as negative shift in V1/2 at 5 uM at -100 mV holding potential by patch-clamp electrophysiology recordings; assay type: cell-based; settings: filed as opener
[12] = Metabolic stability in rat liver microsomes assessed as parent compound remaining at 1 uM preincubated for 15 mins followed by UDPGA addition and measured after 60 mins by LC-MS/MS analysis; assay type: ADME, Microsome; settings: time 75 min, read-out: Stability
[13] = Metabolic stability in human liver microsomes assessed as parent compound remaining at 1 uM preincubated for 15 mins followed by UDPGA addition and measured after 60 mins by LC-MS/MS analysis; assay type: ADME, Microsome; settings: time 75 min, read-out: Stability
[14] = test system: Calcium-activated potassium channel subunit alpha-1 (Homo sapiens), Q12791 [UNDEFINED MUTATION]; assay: as §2, with “at 1” for “at 5”; assay type: cell-based; settings: time 980.0 sec
[15] = test system: Calcium-activated potassium channel subunit alpha-1 (Homo sapiens), Q12791 [UNDEFINED MUTATION]; assay: Activation of hyperactive human BKca channel G803D/N806K mutant transfected in human AD-293 cells at >2 uM preincubated for 15 mins followed by Tl+ stimulus buffer addition and measured after 80 sec in presence of paxilline by Flexstation3 multimode microplate reader analysis; assay type: cell-based; settings: filed as opener, time 980.0 sec
Rattus norvegicus [16] = assay: Reversal of urinary incontinence in male spontaneous hypertensive rat model assessed as decrease in urine frequency at 10 to 50 mg/kg, po measured after 3 hrs; assay type: functional, organism-based; settings: dose 10-50 mg/kg
[17] = Cmax in male Sprague-Dawley rat at 10 mg/kg, po by LC-MS/MS analysis; assay type: ADME, organism-based; settings: in vivo
[18] = Tmax in male Sprague-Dawley rat at 10 mg/kg, po by LC-MS/MS analysis; assay type: ADME, organism-based; settings: in vivo
[19] = Half-life in male Sprague-Dawley rat at 10 mg/kg, po by LC-MS/MS analysis; assay type: ADME, organism-based; settings: in vivo
[20] = AUClast in male Sprague-Dawley rat at 10 mg/kg, po by LC-MS/MS analysis; assay type: ADME, organism-based; settings: in vivo
[21] = Toxicity in male spontaneous hypertensive rat model at 100 mg/kg, po; assay type: organism-based; settings: in vivo
Rattus norvegicus [22] = assay: Reversal of urinary incontinence in male spontaneous hypertensive rat model assessed as decrease in urine frequency at 100 mg/kg, po measured after 3 hrs relative to control; assay type: functional; parameters: scale not given: the % may be the effect or the level left
Rattus norvegicus [23] = assay: Reversal of urinary incontinence in male spontaneous hypertensive rat model assessed as decrease in urine volume at 100 mg/kg, po measured after 3 hrs relative to control; assay type: functional; parameters: scale not given: the % may be the effect or the level left
[24] = molecular target: T1, Calcium-activated potassium channel subunit alpha-1 (Homo sapiens, UniProt Q12791); assay: Activation of BKca channel (unknown origin) by cell-based fluorescence assay
T1 sequence (Q12791 whole entry): as the sequence (Q12791 whole entry, looked up, stated change not applied) above

[25] = molecular target: T1, Calcium-activated potassium channel subunit alpha-1; assay: Activation of BKca channel (unknown origin) by cell based method

Structure (SMILES): Oc1cc(NCCCCCN2CCOCC2)ccc1Oc1c(F)c(F)c(C(F)(F)F)c(F)c1F [listing 1 of 2 here]
EC50 [3]: 2820 nM | EC50 [4]: 970 nM | remaining at 0.5 h, 1 µM [5]: 30.7% | remaining at 0.5 h, 1 µM [6]: 96.9% | Papp at 4 h [7]: 56.6 ×10⁻⁶ cm/s

Structure (SMILES): Oc1cc(NCCCCCN2CCOCC2)ccc1Oc1c(F)c(F)c(C(F)(F)F)c(F)c1F [listing 2 of 2 here]
Activity ([2]; filed as opener): 81.3% | Activity (Oocyte [8]): 86.2 mV | Activity (Oocyte [9]): 24 mV | Activity (Oocyte [10]): 23.5 mV | Activity (Oocyte [11]): 37.9 mV

Structure (SMILES): Oc1cc(NCCCCN2CCOCC2)ccc1Oc1c(F)c(F)c(C(F)(F)F)c(F)c1F [listing 1 of 2 here]
Activity [2]: 9.3%

Structure (SMILES): Oc1cc(NCCCCN2CCOCC2)ccc1Oc1c(F)c(F)c(C(F)(F)F)c(F)c1F [listing 2 of 2 here]
EC50 [3]: 9220 nM | remaining at 0.5 h, 1 µM [5]: 62.5% | remaining at 0.5 h, 1 µM [6]: 91.2%

Structure (SMILES): Oc1ccc(Oc2c(F)c(F)c(Cl)c(F)c2F)cc1
Activity [2]: 6.1%

Structure (SMILES): COc1ccc(Oc2c(F)c(F)c(Cl)c(F)c2F)c(OC)c1
Activity [1]: inactive

Structure (SMILES): Oc1cc(O)cc(Oc2c(F)c(F)c(Cl)c(F)c2F)c1
Activity [2]: 11.8%

Structure (SMILES): Oc1ccc(Oc2ccc(F)c(C(F)(F)F)c2)c(O)c1
Activity [2]: 19.8%

Structure (SMILES): Cl.Cl.Oc1cc(NCCCCN2CCOCC2)ccc1Oc1c(F)c(F)c(C(F)(F)F)c(F)c1F
Cmax [17]: 72.1 ng/mL | Tmax [18]: 0.7 h | half-life [19]: 3.7 h | AUC(0-t) [20]: 223 ng·h/mL | Activity [21]: Non-toxic | Activity (Rattus norvegicus [22]): 43.2% | Activity (Rattus norvegicus [23]): 49.2%

Structure (SMILES): Cc1cccc(NC(=O)c2sc(=S)n3c2[nH]c(=O)c2cc(Br)ccc23)c1
EC50 [24]: 2700 nM | EC50 [25]: 2700 nM

Structure (SMILES): Oc1ccc(Oc2ccc(Cl)c(C(F)(F)F)c2)c(O)c1
Activity ([2]; filed as opener): 74.7%

Structure (SMILES): Oc1c(F)c(F)c(Cl)c(F)c1F
Activity [1]: inactive

Structure (SMILES): Oc1ccc(Oc2c(F)c(F)c(Cl)c(F)c2F)cc1O
Activity [2]: 4%

Now from value to compound, other results behind:

Activity [1]: inactive
Structure (SMILES): Nc1ccc(Oc2c(F)c(F)c(C(F)(F)F)c(F)c2F)cn1

Activity [2]: 3.3%
Structure (SMILES): NCCNc1ccc(Oc2c(F)c(F)c(C(F)(F)F)c(F)c2F)c(O)c1

Activity [2]: 4.7%
Structure (SMILES): Nc1cc(O)ccc1Oc1c(F)c(F)c(C(F)(F)F)c(F)c1F

Activity [2]: 33%
Structure (SMILES): Nc1ccc(Oc2c(F)c(F)c(C(F)(F)F)c(F)c2F)c(OC(F)(F)F)c1

Activity [2]: 19.3%
Structure (SMILES): O=[N+]([O-])c1ccc(Oc2c(F)c(F)c(C(F)(F)F)c(F)c2F)c(O)c1

Activity [2]: 1%
Structure (SMILES): Fc1c(F)c(C(F)(F)F)c(F)c(F)c1Oc1ccc2[nH]ncc2c1

EC50 [3]: 1210 nM | remaining at 0.5 h, 1 µM [5]: 7.2% | remaining at 0.5 h, 1 µM [6]: 87.1% | remaining at 1 h, 1 µM [12]: 88.8% | remaining at 1 h, 1 µM [13]: 30% | Papp at 4 h [7]: 73.6 ×10⁻⁶ cm/s
Structure (SMILES): COc1cc(N)ccc1Oc1c(F)c(F)c(C(F)(F)F)c(F)c1F

Activity [2]: 2.4%
Structure (SMILES): NCCCNc1ccc(Oc2c(F)c(F)c(C(F)(F)F)c(F)c2F)c(O)c1

Activity ([2]; filed as opener): 75.2% | Activity [14]: 5.3%
Structure (SMILES): Nc1ccc(Oc2c(F)c(F)c(C(F)(F)F)c(F)c2F)c(Cl)c1

Activity ([2]; filed as opener): 65.7%
Structure (SMILES): CCNc1ccc(Oc2c(F)c(F)c(C(F)(F)F)c(F)c2F)c(O)c1

Activity [2]: 28.1%
Structure (SMILES): CCCNc1ccc(Oc2c(F)c(F)c(C(F)(F)F)c(F)c2F)c(O)c1

Activity [1]: inactive
Structure (SMILES): Nc1ccc(Oc2c(F)c(F)c(C(F)(F)F)c(F)c2F)nc1

Activity ([2]; filed as opener): 100% | Activity ([14]; filed as opener): 100% | Activity [15]: Active
Structure (SMILES): Nc1ccc(Oc2c(F)c(F)c(C(F)(F)F)c(F)c2F)c(O)c1
Activity (Rattus norvegicus [16]): inactive

Activity [2]: 1%
Structure (SMILES): Fc1c(F)c(C(F)(F)F)c(F)c(F)c1Oc1ccc2[nH]ccc2c1

Activity [2]: 0.1%
Structure (SMILES): O=[N+]([O-])c1cc(O)ccc1Oc1c(F)c(F)c(C(F)(F)F)c(F)c1F

Activity [2]: 10.3%
Structure (SMILES): Nc1ccc(Oc2c(F)c(F)c(C(F)(F)F)c(F)c2F)c(N)c1
